Experimental data as given in patent US20190031624A1, “THERAPEUTIC COMPOUNDS AND METHODS TO TREAT INFECTION” (priority 2017, published 2019).
Converted amounts (≈) assume the structure as drawn. Where a name gives a salt, the structure may show the parent alone. Read-outs that look alike come from different tables or passages of the source.

Tests used:
[1] = tested on: E. coli 25922; test: MIC assay in the presence of a bacterial efflux pump inhibitor (EPI); type: cell-based, Escherichia coli; settings: with 12.5 ug/ml of EPI (2S,4R)-4-(ammoniomethyl)-2-((6-(4-fluorophenyl)-1H-indole-2-carboxamido)methyl)pyrrolidin-1-ium, MIC90
Method: (§1) The ability of a compound to produce an antibiotic effect can be determined using a method as described in Example 21. Data for representative compounds used in combination with the efflux pump inhibitor [(2S,4R)-4-(ammoniomethyl)-2-((6-(4-fluorophenyl)-1H-indole-2-carboxamido)methyl)pyrrolidin-1-ium] is shown in Table 1.
(§2) MIC assays were conducted in accordance with Clinical and Laboratory Standards Institute (CLSI) guidelines for broth microdilution. A 96-well plate containing cation-adjusted Mueller-Hinton (CAMH broth with 2-fold serial dilution of compounds was inoculated with log-phase bacterial at 5×10^5 CFU/mL. The final volume in each well was 100 μL. Each compound was tested in duplicate. The microtiter plates were incubated in an aerobic environment for 18 hours at 37° C. Then the bacterial growth was tested by reading the plate with a VersaMax plate reader (Molecular Devices, Inc.) at 600 nm. The MIC was defined as the lowest compound concentration that inhibited 90% of bacteria growth.
(§3) Escherichia coli ATCC 25922
(§4) The EPI assay for the purposes of these studies represents a MIC assay in which the MIC of the antibiotic against the bacteria is tested in the presence of an experimental efflux pump inhibitor (EPI). The highest concentration of the EPI present in the assay typically is ½ of the intrinsic MIC of the compound. If the intrinsic MIC of the EPI is greater than 100 μg/mL, the EPI assay was tested with 50 μg/mL. Using serial dilutions of the EPI, its enhancement of antibiotic activity was then evaluated. The relative EPI activity was decided by comparing the MIC of the antibiotic in the presence of the EPI compound with the intrinsic MIC of the antibiotic alone. For comparative purposes, we generally used EPIs at concentration of 12.5 and 6.25 μg/ml against varying concentration of our test antibiotic.

[2] = tested on: P. aeruginosa PAO1; test: as above; type: cell-based, Pseudomonas aeruginosa; settings: with 12.5 ug/ml of EPI (2S,4R)-4-(ammoniomethyl)-2-((6-(4-fluorophenyl)-1H-indole-2-carboxamido)methyl)pyrrolidin-1-ium, MIC90
Method: as §1, §2
(§5) Pseudomonas aeruginosa PAO1
as §4

[3] = tested on: E. coli 25922; test: Intrinsic MIC assay (CLSI broth microdilution); type: cell-based, Escherichia coli; settings: for MIC: read-out: Antibiotic Activity Against E. coli: Intrinsic MIC
Method: as §2, §3

[4] = tested on: P. aeruginosa PAO1; test: Intrinsic MIC assay (CLSI broth microdilution); type: cell-based, Pseudomonas aeruginosa; settings: for MIC: Pseudomonas aeruginosa, read-out: Antibiotic Activity Against P. aeruginosa: Intrinsic MIC
Method: as §2, §5

[5] = target: T1, MexAB-OprM efflux transporter (Pseudomonas aeruginosa, UniProt P52002); settings: wild-type P. aeruginosa; cited from earlier work
T1 construct: MexAB-OprM efflux transporter present in wild-type P. aeruginosa; endogenous in cells; host or cells: wild-type P. aeruginosa
T1 sequence (Q51487 18-485): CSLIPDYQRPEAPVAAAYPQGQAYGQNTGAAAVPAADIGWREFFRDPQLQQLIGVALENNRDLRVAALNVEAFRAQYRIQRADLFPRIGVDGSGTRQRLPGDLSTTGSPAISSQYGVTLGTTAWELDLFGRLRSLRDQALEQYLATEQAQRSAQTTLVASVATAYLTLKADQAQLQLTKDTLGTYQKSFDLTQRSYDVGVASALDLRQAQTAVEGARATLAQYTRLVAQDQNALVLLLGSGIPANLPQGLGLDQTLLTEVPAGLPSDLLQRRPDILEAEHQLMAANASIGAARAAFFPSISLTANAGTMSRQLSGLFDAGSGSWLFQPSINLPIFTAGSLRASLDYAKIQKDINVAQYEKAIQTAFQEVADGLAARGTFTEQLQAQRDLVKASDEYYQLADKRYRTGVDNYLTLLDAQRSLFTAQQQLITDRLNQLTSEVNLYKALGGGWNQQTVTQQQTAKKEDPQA
T1 sequence (P52477 24-383, further chain): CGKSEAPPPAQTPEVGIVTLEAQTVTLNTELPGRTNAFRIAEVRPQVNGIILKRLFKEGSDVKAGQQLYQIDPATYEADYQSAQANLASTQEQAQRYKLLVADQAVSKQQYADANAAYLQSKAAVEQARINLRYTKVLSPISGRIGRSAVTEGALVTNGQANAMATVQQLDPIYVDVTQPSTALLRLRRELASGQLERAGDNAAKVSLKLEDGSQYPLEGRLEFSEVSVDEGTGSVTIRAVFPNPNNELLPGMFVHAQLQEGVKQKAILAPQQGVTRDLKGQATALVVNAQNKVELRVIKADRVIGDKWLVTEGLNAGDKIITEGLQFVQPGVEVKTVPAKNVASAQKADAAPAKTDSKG
T1 sequence (P52002 whole entry): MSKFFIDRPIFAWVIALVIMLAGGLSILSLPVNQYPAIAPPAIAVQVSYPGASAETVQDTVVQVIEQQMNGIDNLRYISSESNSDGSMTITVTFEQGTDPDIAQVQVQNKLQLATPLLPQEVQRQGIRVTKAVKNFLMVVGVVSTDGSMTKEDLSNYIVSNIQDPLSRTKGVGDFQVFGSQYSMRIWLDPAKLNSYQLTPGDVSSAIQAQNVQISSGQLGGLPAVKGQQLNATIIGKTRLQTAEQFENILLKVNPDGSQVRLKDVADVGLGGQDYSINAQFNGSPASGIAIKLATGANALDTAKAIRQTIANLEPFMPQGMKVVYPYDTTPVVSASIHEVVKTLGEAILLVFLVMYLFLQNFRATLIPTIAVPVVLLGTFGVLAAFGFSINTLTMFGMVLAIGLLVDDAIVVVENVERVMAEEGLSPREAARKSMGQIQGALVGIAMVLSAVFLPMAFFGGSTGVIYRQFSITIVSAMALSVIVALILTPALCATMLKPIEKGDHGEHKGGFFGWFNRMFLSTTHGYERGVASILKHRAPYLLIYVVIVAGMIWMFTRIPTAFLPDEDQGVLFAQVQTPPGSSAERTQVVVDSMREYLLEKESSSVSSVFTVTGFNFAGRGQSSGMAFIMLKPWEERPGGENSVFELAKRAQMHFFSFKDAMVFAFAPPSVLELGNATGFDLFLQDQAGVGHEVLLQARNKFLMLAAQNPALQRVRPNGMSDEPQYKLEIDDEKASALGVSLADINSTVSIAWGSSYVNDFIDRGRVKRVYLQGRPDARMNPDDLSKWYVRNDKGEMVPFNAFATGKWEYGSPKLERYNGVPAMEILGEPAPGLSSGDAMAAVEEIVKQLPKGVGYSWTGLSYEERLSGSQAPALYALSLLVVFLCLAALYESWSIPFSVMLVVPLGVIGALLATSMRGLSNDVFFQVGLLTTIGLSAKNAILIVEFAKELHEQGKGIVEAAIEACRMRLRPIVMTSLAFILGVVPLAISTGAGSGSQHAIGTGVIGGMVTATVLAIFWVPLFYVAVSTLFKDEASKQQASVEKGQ

[6] = tested on: MreB; settings: P. aeruginosa strains with defective efflux transporters; cited from earlier work
[7] = Escherichia coli, 18 h, E. coli 25922, without EPI, MIC90
[8] = 18 h, P. aeruginosa PAO1, without EPI, MIC90

| Molecule | Antibiotic Activity Against E. coli: MIC with EPI (Enhancement) [1] [µg/mL] | Antibiotic Activity Against P. aeruginosa: MIC with EPI (Enhancement) [2] [µg/mL] | MIC [3, 7] [µg/mL] | MIC [4, 8] [µg/mL] | efflux transporter substrate [5] | MreB inhibition [6] | MIC ([3]; Escherichia coli, 25922, 18 h) [µg/mL] | MIC ([4]; PAO1, 18 h) [µg/mL] | Antibiotic Activity Against E. coli: Intrinsic MIC ([3]; E. coli 25922, without EPI, MIC90) [µg/mL] | Antibiotic Activity Against P. aeruginosa: Intrinsic MIC ([4]; P. aeruginosa PAO1, without EPI, MIC90) [μ/mL] |
| --- | --- | --- | --- | --- | --- | --- | --- | --- | --- | --- |
| Br.N=C(N)SCc1ccc(Cl)cc1Cl [Example 2, 2,4-Dichlorobenzyl Carbamimidothioate Hydrobromide] | >256 | 1.0 | > 256 | > 256 | – | – | – | – | – | – |
| N=C(N)SCc1ccc(Cl)c(Cl)c1 [Example A22, S-(3,4-Dichlorobenzyl)isothiourea] | – | – | – | – | substrate for the MexAB-OprM efflux transporter | effective MreB inhibitor | – | – | – | – |
| N=C(N)SCc1cccc(Br)c1 [Example 8, 3-bromobenzyl Carbamimidothioate Hydrobromide] | >256 | >256 | – | – | – | – | > 256 | > 256 | – | – |
| Br.CC(SC(=N)N)c1ccc(Cl)c(Cl)c1 (stereo not shown) [Example 5, 1-(3,4-Dichlorophenyl)ethyl Carbamimidothioate Hydrobromide] | 256 | 4.0 | 256 | > 256 | – | – | – | – | – | – |
| CNC(=N)SCc1ccc(Cl)c(Cl)c1.Cl [Example 6, 3,4-dichlorobenzyl Methylcarbamimidothioate Hydrobromide] | >256 | 4.0 | > 256 | > 256 | – | – | – | – | – | – |
| CN1CN=C(SCc2ccc3ccccc3c2)NC1 [Example 13, 3-methyl-6-((naphthalen-2-ylmethyl)thio)-1,2,3,4-tetrahydro-1,3,5-triazine] | 16 | 16 | > 256 | > 256 | – | – | – | – | – | – |
| N=C(N)SCc1ccc(C(F)(F)F)nc1 [Example 14, (6-(trifluoromethyl)pyridin-3-yl)methyl Carbamimidothioate Hydrochloride] | >256 | >256 | – | – | – | – | > 256 | > 256 | – | – |
| Cl.N=C(N)SCc1ccc(Cl)c(Cl)c1 [Example 1, 3,4-Dichlorobenzyl Carbamimidothioate Hydrobromide] | 4 | 0.5 | 64 | > 256 | – | – | – | – | – | – |
| N=C(N)SCCc1ccc(Cl)c(Cl)c1 [Example 4, 3,4-dichlorophenethyl carbamimidothioate] | 256 | >256 | 256 (≈ 1030 µM) | > 256 | – | – | – | – | – | – |
| Isoquinolin-5-ylmethyl Carbamimidothioate Hydrobromide [Example 20] | >256 | >256 | – | – | – | – | – | – | >256 | >256 |

Now from value to molecule, other results behind:

| Antibiotic Activity Against E. coli: MIC with EPI (Enhancement) [1] [µg/mL] | Antibiotic Activity Against P. aeruginosa: MIC with EPI (Enhancement) [2] [µg/mL] | MIC [3, 7] [µg/mL] | MIC [4, 8] [µg/mL] | Molecule | efflux transporter substrate [5] | MreB inhibition [6] | MIC ([3]; Escherichia coli, 25922, 18 h) [µg/mL] | MIC ([4]; PAO1, 18 h) [µg/mL] | Antibiotic Activity Against E. coli: Intrinsic MIC ([3]; E. coli 25922, without EPI, MIC90) [µg/mL] | Antibiotic Activity Against P. aeruginosa: Intrinsic MIC ([4]; P. aeruginosa PAO1, without EPI, MIC90) [μ/mL] |
| --- | --- | --- | --- | --- | --- | --- | --- | --- | --- | --- |
| 16 | 4 | > 256 | > 256 | Cl.N=C(N)SCc1ccc2ccccc2c1 [Example 12, naphthalen-2-ylmethyl Carbamimidothioate Hydrobromide] | – | – | – | – | – | – |
| 256 | 256 | 256 | > 256 | Br.CC(C)(C)c1ccc(CSC(=N)N)cc1 [Example 3, 4-(t-Butyl)Benzyl Carbamimidothioate Hydrobromide] | – | – | – | – | – | – |
| 64 | >256 | 64 | > 256 | Br.N=C(N)SCc1ccc(-c2ccc(F)cc2)cc1 [Example 9, (4′-fluoro-[1,1′-biphenyl]-4-yl)methyl Carbamimidothioate Hydrobromide] | – | – | – | – | – | – |
| >256 | 4 | > 256 | 16 | N=C(N)SCc1ccc2occc2c1 [Example 15, benzofuran-5-ylmethyl Carbamimidothioate Hydrobromide] | – | – | – | – | – | – |
| >256 | >256 | > 256 | > 256 | Br.N=C(N)SCc1cccc2cccnc12 [Example 19, quinolin-8-ylmethyl Carbamimidothioate Hydrobromide] | – | – | – | – | – | – |
| 64 | >256 | 64 | > 256 | N=C(N)SCc1cccc(-c2ccc(F)cc2)c1 [Example 10, (4′-fluoro-[1,1′-biphenyl]-3-yl)methyl Carbamimidothioate Hydrobromide] | – | – | – | – | – | – |
| >256 | 1.0 | > 256 | > 256 | Br.N=C(N)SCc1ccc(Br)cc1 [Example 7, 4-Bromobenzyl Carbamimidothioate Hydrobromide] | – | – | – | – | – | – |
| 128 | >256 | > 128 | > 256 | CC(C)(C)OC(=O)n1ccc2cc(CSC(=N)N)ccc21 [Example 17, t-Butyl 5-((carbamimidoylthio)methyl)-1H-indole-1-carboxylate] | – | – | – | – | – | – |
| >256 | 4 | > 256 | > 256 | N=C(N)SCc1ccc2sccc2c1 [Example 16, Benzo[b]thiophen-5-ylmethyl Carbamimidothioate Hydrobromide] | – | – | – | – | – | – |
| >256 | >256 | > 256 | > 256 | N=C(N)SCc1ccc2ncccc2c1 [Example 18, quinolin-6-ylmethyl Carbamimidothioate Hydrobromide] | – | – | – | – | – | – |
| >256 | >256 | > 256 | > 256 | N=C(N)SCc1cccc2ccccc12 [Example 11, naphthalen-1-ylmethyl Carbamimidothioate Hydrobromide] | – | – | – | – | – | – |
